We go through 18 molecules from paper PMC9116648, “Synthesis and biological evaluation of thiazolidine-2-thione derivatives as novel xanthine oxidase inhibitors” (PLoS ONE, 2022).

“Also recorded” adds a separate entry of the source. Read-outs that look alike come from different tables or passages of the source.

Data set [1] deals with T1, Xanthine oxidase (XO) (Homo sapiens, UniProt P47989). Description: In vitro XO inhibitory potency (enzyme catalysis reaction, OD 295 nm). Format: biochemical. The protocol: XO inhibitory activity was measured by enzyme catalysis reaction in vitro, with modifications. The XO solution (100 U/L) and xanthine solution (0.5 mmol/L) were prepared in PBS (10 mmol/L, pH = 7.4) and stored at 4°C. The test compounds were diluted to different concentrations with PBS. The enzyme catalysis reaction was performed in 96-well plates.

The target in data set [2] is T1, Xanthine oxidase (XO). Description: Enzyme inhibitory kinetics (Lineweaver-Burk plots). Format: biochemical. The protocol:
The inhibitory mode of representative compound 6k was further investigated using enzyme inhibitory kinetic studies. XO solution (55 U/L) was mixed respectively with compound 6k (0, 5, 10, and 20 μmol/L) and incubated at 37°C for 5 min. Then, xanthine solution (0.25, 0.5, 1.0, and 2.0 mmol/L) were added to initiate the reaction at 37°C for 30 min. The reaction was carried out in a 96-well plate and the OD value were read using a microplate reader at 295 nm. The obtained data were analyzed using Microsoft Excel 2013 and transformed into Lineweaver-Burk plots using GraphPad Prism 7.0. In addition, the value of Ki and Kis could be calculated using GraphPad Prism 7.0.

Data set [3] has as its target T1, Xanthine oxidase (XO). The note with it: literature statement; cited from earlier work.
[4] abbreviates: S1 Table, mean of three determinations, unit inferred, read-out: IC50 mean.
Setting [5] is: S1 Table, single determination 1 of 3, unit inferred, read-out: IC50 (first replicate column).
Setting [6] is: S1 Table, single determination 2 of 3, unit inferred, read-out: IC50 (second replicate column).
[7] abbreviates: S1 Table, single determination 3 of 3, unit inferred, read-out: IC50 (third replicate column).
The mark [8] stands for this setting: mean±SD, tested in triplicate, xanthine substrate, 37°C, PBS pH 7.4, read-out: IC50.

T1 sequence (P47989 whole entry, species assumed): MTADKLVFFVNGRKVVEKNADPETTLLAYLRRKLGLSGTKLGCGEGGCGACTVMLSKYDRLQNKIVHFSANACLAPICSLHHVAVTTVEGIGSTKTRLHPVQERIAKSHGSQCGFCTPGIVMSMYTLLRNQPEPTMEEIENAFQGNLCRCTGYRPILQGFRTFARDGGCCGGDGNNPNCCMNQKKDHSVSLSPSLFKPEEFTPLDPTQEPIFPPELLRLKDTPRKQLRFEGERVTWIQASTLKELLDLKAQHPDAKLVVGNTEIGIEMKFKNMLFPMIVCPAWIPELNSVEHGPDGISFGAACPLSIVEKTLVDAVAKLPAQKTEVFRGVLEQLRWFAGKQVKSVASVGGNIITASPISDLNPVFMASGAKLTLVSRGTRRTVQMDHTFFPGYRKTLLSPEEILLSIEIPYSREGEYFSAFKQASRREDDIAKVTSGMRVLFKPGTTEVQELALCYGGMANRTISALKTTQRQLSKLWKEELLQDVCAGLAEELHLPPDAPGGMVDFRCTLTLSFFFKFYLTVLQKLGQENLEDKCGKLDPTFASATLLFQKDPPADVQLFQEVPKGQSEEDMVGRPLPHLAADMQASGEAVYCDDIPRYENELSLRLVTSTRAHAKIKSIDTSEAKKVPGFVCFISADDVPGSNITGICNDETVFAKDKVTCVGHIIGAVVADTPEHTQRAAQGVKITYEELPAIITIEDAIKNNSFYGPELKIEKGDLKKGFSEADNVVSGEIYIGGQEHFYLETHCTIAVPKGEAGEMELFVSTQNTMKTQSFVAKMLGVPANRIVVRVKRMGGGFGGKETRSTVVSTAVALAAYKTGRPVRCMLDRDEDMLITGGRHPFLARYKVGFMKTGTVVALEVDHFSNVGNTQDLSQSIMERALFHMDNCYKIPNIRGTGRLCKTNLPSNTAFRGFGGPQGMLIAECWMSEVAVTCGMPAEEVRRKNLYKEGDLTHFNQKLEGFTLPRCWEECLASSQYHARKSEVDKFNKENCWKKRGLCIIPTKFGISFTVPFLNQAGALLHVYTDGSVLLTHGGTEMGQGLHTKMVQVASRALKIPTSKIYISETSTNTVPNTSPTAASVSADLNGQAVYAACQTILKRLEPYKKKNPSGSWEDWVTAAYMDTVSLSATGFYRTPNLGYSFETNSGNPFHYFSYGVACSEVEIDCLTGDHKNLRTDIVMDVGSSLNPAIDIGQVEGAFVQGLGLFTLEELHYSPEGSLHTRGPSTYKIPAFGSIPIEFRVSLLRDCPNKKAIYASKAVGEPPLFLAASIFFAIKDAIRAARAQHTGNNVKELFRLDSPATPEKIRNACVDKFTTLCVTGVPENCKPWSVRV

As to `CC(C)CNC(=O)N1CCSC1=S` [Compound 6d, N-isobutyl-2-thioxothiazolidine-3-carboxamide], the IC50 in data set [1] (setting [4]) came to 19 µM; in data set [1] (setting [5]) it was 21 µM; in data set [1] (setting [6]), 17.7 µM; in data set [1] (setting [7]), 18.4 µM; in data set [1] (setting [8]), 19 ± 1.44 µM.

As to `CCCCNC(=O)N1CCSC1=S` [Compound 6c, N-butyl-2-thioxothiazolidine-3-carboxamide], the IC50 in data set [1] (setting [4]) stood at 30.5 µM; in data set [1] (setting [5]), 30.1 µM; in data set [1] (setting [6]), 33.5 µM; in data set [1] (setting [7]), 28 µM; in data set [1] (setting [8]), 30.5 ± 2.25 µM.

Consider `SC1=NCCS1` [Compound 3, thiazolidine-2-thione], for which the concentration for half-maximal inhibition (IC50) in data set [1] (setting [4]) is 72.2 µM; in data set [1] (setting [5]), 74.1 µM; in data set [1] (setting [6]), 72.3 µM; in data set [1] (setting [7]), 70.1 µM; in data set [1] (setting [8]), 72.2 ± 1.66 µM.

For the molecule `O=C(NS(=O)(=O)c1ccc(F)cc1)N1CCSC1=S` [Compound 6k, N-((4-fluorophenyl)sulfonyl)-2-thioxothiazolidine-3-carboxamide], in data set [2] (Lineweaver-Burk plots), the “Mode of XO inhibition” value is reported as “mixed-type XO inhibition; also recorded: mixed competitive inhibition; also recorded: mixed-type XO inhibitor”. Also, the “Intercept of Lineweaver-Burk plot” value in data set [2] (compound 6k 5 µmol/L) was determined as 1.487; in data set [2] (compound 6k 10 µmol/L), 2.126; in data set [2] (compound 6k 20 µmol/L) it was 2.357. The “Slope of Lineweaver-Burk plot” value in data set [2] (compound 6k 5 µmol/L) was 3.559; in data set [2] (compound 6k 10 µmol/L), 4.587; in data set [2] (compound 6k 20 µmol/L), 6.098. The affinity in data set [2] (from secondary plot of Lineweaver-Burk slopes, XO 55 U/L) corresponds to a Ki of 7.08 µM. The 50% inhibitory concentration (IC50) in data set [1] (setting [4]) was found to be 3.56 µM; in data set [1] (setting [5]) it was 3.19 µM; in data set [1] (setting [6]), 4.42 µM; in data set [1] (setting [7]) it was 3.06 µM; in data set [1] (setting [8]), 3.56 ± 0.61 µM. Besides, the “XO inhibitory potency relative to allopurinol (fold more potent)” value in data set [1] (ratio of IC50 values vs allopurinol) is “approximately 2.5 fold”.

Regarding `O=C(NC1CCCCC1)N1CCSC1=S` [Compound 6h, N-cyclohexyl-2-thioxothiazolidine-3-carboxamide], the melting point was in the range of 114 to 115 °C. In data set [1] (setting [4]), the IC50 is 9.87 µM. Moreover, the IC50 in data set [1] (setting [5]) was determined as 8.25 µM. In addition, the half-maximal inhibitory concentration (IC50) in data set [1] (setting [6]) was found to be 11.1 µM. For the same molecule, in data set [1] (setting [7]), the IC50 was 10.3 µM. Further, the IC50 in data set [1] (setting [8]) came out at 9.87 ± 1.19 µM.

For the molecule `CCCNC(=O)N1CCSC1=S` [Compound 6b, N-propyl-2-thioxothiazolidine-3-carboxamide], the 50% inhibitory concentration (IC50) in data set [1] (setting [4]) was 27.8 µM; in data set [1] (setting [5]) it was 27.2 µM; in data set [1] (setting [6]) it was 27.6 µM; in data set [1] (setting [7]) it was 28.6 µM; in data set [1] (setting [8]), 27.8 ± 0.63 µM.

The molecule `O=C(NS(=O)(=O)c1ccccc1)N1CCSC1=S` [Compound 6i, N-(phenylsulfonyl)-2-thioxothiazolidine-3-carboxamide] yielded a melting point of 121 to 123 °C. Besides, the concentration for half-maximal inhibition (IC50) in data set [1] (setting [4]) came out at 5.19 µM. Further, the IC50 in data set [1] (setting [5]) turned out to be 5.19 µM. In addition, in data set [1] (setting [6]), the concentration for half-maximal inhibition (IC50) came out at 4.02 µM. For the same molecule, the IC50 in data set [1] (setting [7]) worked out at 6.35 µM. The half-maximal inhibitory concentration (IC50) in data set [1] (setting [8]) worked out at 5.19 ± 0.95 µM.

`Cc1nc(-c2ccc(OCC(C)C)c(C#N)c2)sc1C(=O)O` [Febuxostat, reference compound]: the IC50 in data set [1] (IC50 (first replicate column), S1 Table, single determination 1 of 3, unit inferred) is 3.02 µM; in data set [1] (IC50 (second replicate column), S1 Table, single determination 2 of 3, unit inferred) it was 2.91 µM; in data set [1] (IC50 (third replicate column), S1 Table, single determination 3 of 3, unit inferred) it was 4.08 µM; in data set [1] (IC50, mean±SD, tested in triplicate, xanthine substrate, 37°C, PBS pH 7.4) it was 3.34 ± 0.53 µM; in data set [1] (IC50 mean, S1 Table, mean of three determinations, unit inferred), 3.34 µM.

For `O=C(NCc1ccccc1)N1CCSC1=S` [Compound 6f, N-benzyl-2-thioxothiazolidine-3-carboxamide], the melting point lay in the range of 107 to 109 °C. The 50% inhibitory concentration (IC50) in data set [1] (setting [4]) was determined as 12.8 µM. Besides, the half-inhibitory concentration (IC50) in data set [1] (setting [5]) stood at 12.8 µM. In data set [1] (setting [6]), the IC50 came out at 14.8 µM. Further, the IC50 in data set [1] (setting [7]) amounted to 10.8 µM. For the same molecule, the IC50 in data set [1] (setting [8]) stood at 12.8 ± 1.6 µM.

For the molecule `S=C1SCCN1c1ccccc1` [Compound 4c, 3-phenyl-thiazolidine-2-thione], the half-maximal inhibitory concentration (IC50) in data set [1] (setting [4]) turned out to be 51.6 µM; in data set [1] (setting [5]), 49.4 µM; in data set [1] (setting [6]), 52.2 µM; in data set [1] (setting [7]), 53.3 µM; in data set [1] (setting [8]), 51.6 ± 1.64 µM.

`O=C(Nc1cccnc1)N1CCSC1=S` [Compound 6g, N-(pyridin-3-yl)-2-thioxothiazolidine-3-carboxamide] came in with a melting point of 111 to 113 °C. Also, the IC50 in data set [1] (setting [4]) was 14.5 µM. Further, the IC50 in data set [1] (setting [5]) amounted to 17.7 µM. Also, the half-maximal inhibitory concentration (IC50) in data set [1] (setting [6]) stood at 15.1 µM. In addition, the 50% inhibitory concentration (IC50) in data set [1] (setting [7]) is 10.7 µM. Also, in data set [1] (setting [8]), the IC50 was determined as 14.5 ± 2.9 µM.

Turning to `CCCN1CCSC1=S` [Compound 4b, 3-propyl-thiazolidine-2-thione], the concentration for half-maximal inhibition (IC50) in data set [1] (setting [4]) was 58.2 µM; in data set [1] (setting [5]), 50.5 µM; in data set [1] (setting [6]), 57.2 µM; in data set [1] (setting [7]) it was 66.8 µM; in data set [1] (setting [8]), 58.2 ± 6.71 µM.

`Cc1ccc(S(=O)(=O)NC(=O)N2CCSC2=S)cc1` [Compound 6j, N-((4-methylphenyl)sulfonyl)-2-thioxothiazolidine-3-carboxamide] had a melting point of 127 to 129 °C. Moreover, the IC50 in data set [1] (setting [4]) worked out at 9.76 µM. In data set [1] (setting [5]), the half-inhibitory concentration (IC50) came to 11.5 µM. Also, in data set [1] (setting [6]), the 50% inhibitory concentration (IC50) was 8.48 µM. In data set [1] (setting [7]), the IC50 is 9.27 µM. Besides, in data set [1] (setting [8]), the IC50 was 9.76 ± 1.29 µM.

With `CCNC(=O)N1CCSC1=S` [Compound 6a, N-ethyl-2-thioxothiazolidine-3-carboxamide], the IC50 was found to be 22.9 µM in data set [1] (setting [4]); 19.9 µM in data set [1] (setting [5]); 23.5 µM in data set [1] (setting [6]); 25.3 µM in data set [1] (setting [7]); 22.9 ± 2.24 µM in data set [1] (setting [8]).

Consider `O=C(Nc1ccccc1)N1CCSC1=S` [Compound 6e, N-phenyl-2-thioxothiazolidine-3-carboxamide], for which the melting point is 101 to 102 °C. The concentration for half-maximal inhibition (IC50) in data set [1] (setting [4]) came out at 10.2 µM. The half-maximal inhibitory concentration (IC50) in data set [1] (setting [5]) is 10.6 µM. Moreover, in data set [1] (setting [6]), the half-inhibitory concentration (IC50) was 8.38 µM. Further, in data set [1] (setting [7]), the IC50 turned out to be 11.7 µM. In data set [1] (setting [8]), the 50% inhibitory concentration (IC50) was 10.2 ± 1.37 µM.

Regarding `Oc1ncnc2[nH]ncc12` [Allopurinol], in data set [3], the “Mode of XO inhibition” value is “competitive inhibition”.

On to `CCN1CCSC1=S` [Compound 4a, 3-ethyl-thiazolidine-2-thione], for which the IC50 in data set [1] (setting [4]) was 43.5 µM; in data set [1] (setting [5]), 43.4 µM; in data set [1] (setting [6]), 40.9 µM; in data set [1] (setting [7]), 46.3 µM; in data set [1] (setting [8]) it was 43.5 ± 2.18 µM.

Consider `S=C1SCCN1Cc1ccccc1` [Compound 4d, 3-benzyl-thiazolidine-2-thione], for which the melting point fell in the range of 115 to 117 °C. In addition, the IC50 in data set [1] (setting [4]) was 114 µM. For the same molecule, in data set [1] (setting [5]), the IC50 came out at 122 µM. Besides, the IC50 in data set [1] (setting [6]) stood at 109 µM. In addition, in data set [1] (setting [7]), the 50% inhibitory concentration (IC50) was determined as 110 µM. The IC50 in data set [1] (setting [8]) was over 100 µM.
